# Earlier results in patent publication US11753385B2, “Method for producing kakeromycin and derivatives thereof” (OP BIO FACTORY CO., LTD., priority 2015, dated 2023).
# Key:
# [1] = tested on: PANC-1 pancreas cancer cell
# [2] = tested on: pathogens of candidiasis; conditions: background statement, in words only
# [3] = tested on: HepG2 liver cancer cell
smiles,measurement,setting,value
CC=C(Cc1ccccc1)C12CC(O)CCN1O2 (stereo not drawn) [kakeromycin],cytotoxicity,[1],shows cytotoxicity
same,antibacterial activity against pathogens of candidiasis,[2],strong antibacterial activity
same,cytotoxicity,[3],shows cytotoxicity
